Assay results published in patent US10324085B2, “Systems and methods for the monitoring of protein complex formation in cells” (priority 2013, dated 2019).
Values joined by “and” are separate entries in the source; they are usually repeats but may differ in a detail not shown here. Identical values can stand only once. Like-named read-outs stand apart in the source and are kept apart here.

Assays:
[1] = biological target: T1, RXRγ-RARα-CoRNBox complex (Homo sapiens, UniProt P10276); assay: BRETFect RXRγ-RARα-CoRNBox ternary complex in HEK293 cells; type: cell-based; conditions: 1 μM, 40 min
T1 construct: expressed in transfected cells; host or cells: HEK293
T1 sequence (P10276 1-462): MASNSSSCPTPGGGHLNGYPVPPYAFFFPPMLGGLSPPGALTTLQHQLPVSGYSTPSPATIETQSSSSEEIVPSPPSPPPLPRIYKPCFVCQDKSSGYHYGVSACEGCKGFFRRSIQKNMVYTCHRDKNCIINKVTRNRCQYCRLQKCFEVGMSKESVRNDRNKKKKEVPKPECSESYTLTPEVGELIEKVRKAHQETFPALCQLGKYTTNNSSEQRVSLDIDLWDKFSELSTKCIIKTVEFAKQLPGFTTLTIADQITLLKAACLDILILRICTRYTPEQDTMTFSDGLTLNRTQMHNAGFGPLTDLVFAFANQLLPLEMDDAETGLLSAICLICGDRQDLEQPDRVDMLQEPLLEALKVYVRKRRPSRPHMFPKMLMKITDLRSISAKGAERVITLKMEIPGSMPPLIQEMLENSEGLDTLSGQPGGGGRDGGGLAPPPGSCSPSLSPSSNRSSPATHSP
T1 sequence (P48443 1-463 partner): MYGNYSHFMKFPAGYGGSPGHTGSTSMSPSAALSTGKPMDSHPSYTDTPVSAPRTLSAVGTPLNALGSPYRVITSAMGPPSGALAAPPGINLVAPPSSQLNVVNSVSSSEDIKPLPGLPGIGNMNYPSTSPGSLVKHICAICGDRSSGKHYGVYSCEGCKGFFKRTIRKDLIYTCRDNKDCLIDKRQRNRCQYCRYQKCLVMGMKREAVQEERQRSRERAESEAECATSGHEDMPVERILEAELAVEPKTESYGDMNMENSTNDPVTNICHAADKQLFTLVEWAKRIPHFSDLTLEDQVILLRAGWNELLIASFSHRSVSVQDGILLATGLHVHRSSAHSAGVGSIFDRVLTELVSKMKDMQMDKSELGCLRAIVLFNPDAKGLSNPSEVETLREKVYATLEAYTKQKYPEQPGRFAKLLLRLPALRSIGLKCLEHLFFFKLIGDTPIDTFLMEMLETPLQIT
Procedure: Cells were treated for 40 min with vehicle DMSO (0) or all-trans retinoic acid (ATRA) before coelenterazine H addition and BRET measurement.

ERα-ERα [2] = biological target: T2, ERα-ERα (Homo sapiens, UniProt P03372); assay: cell-based
T2 construct: expressed in transfected cells; host or cells: HEK293
Target sequence in this assay (P03372 whole entry): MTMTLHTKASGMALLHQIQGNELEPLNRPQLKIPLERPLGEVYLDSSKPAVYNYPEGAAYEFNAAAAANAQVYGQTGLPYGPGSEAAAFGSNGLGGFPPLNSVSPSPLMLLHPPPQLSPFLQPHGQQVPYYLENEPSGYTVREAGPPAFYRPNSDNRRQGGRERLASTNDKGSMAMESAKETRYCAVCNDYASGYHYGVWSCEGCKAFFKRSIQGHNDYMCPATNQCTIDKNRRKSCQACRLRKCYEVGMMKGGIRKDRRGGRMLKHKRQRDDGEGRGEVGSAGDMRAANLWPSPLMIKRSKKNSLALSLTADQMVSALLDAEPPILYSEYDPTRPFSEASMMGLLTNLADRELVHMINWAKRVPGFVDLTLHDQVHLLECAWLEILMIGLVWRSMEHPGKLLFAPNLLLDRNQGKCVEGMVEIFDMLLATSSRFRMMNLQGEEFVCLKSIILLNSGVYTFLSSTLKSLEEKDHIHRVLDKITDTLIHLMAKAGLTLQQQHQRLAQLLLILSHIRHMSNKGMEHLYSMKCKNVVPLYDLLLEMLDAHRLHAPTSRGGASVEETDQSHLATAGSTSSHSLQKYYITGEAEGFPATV

ERα-ERβ [3] = biological target: T3, ERα-ERβ (Homo sapiens, UniProt P03372+Q92731); assay: cell-based
T3 construct: expressed in transfected cells; host or cells: HEK293
Target sequence in this assay (Q92731 whole entry): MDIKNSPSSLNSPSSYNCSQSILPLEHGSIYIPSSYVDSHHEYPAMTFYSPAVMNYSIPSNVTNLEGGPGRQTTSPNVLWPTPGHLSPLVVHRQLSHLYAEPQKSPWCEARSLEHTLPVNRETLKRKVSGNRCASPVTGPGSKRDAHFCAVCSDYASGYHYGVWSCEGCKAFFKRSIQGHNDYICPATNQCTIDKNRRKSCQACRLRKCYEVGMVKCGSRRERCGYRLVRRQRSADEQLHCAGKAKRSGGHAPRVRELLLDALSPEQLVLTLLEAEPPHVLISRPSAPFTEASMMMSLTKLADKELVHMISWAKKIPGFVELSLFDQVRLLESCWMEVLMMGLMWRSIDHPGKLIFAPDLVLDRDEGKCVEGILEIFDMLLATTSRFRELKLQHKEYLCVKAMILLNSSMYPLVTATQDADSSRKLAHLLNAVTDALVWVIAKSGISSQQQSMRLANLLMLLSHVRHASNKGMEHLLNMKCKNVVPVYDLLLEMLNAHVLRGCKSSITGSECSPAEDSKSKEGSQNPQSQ
Target sequence in this assay (P03372 whole entry): as the sequence (P03372 whole entry) above
Target sequence in this assay (as listed by the source): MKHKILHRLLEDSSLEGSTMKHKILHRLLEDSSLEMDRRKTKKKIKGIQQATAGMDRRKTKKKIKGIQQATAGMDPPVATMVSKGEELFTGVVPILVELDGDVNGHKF

ERα-ERα [4] = biological target: T2, ERα-ERα; assay: cell-based; conditions: BRETFect titration curves, HEK293 cells, average of three biological replicates; read-out: EC50 (nM), recruitment of SRC1-RID, ERα-ERα
Target sequence in this assay (P03372 whole entry): as the sequence (P03372 whole entry) above
Target sequence in this assay (Q15788 626-753, further chain): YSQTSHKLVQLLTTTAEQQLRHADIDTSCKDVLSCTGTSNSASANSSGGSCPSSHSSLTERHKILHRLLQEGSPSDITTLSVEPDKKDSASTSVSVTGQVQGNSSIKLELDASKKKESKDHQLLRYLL

ERα-ERβ [5] = biological target: T3, ERα-ERβ; assay: cell-based; conditions: BRETFect titration curves, HEK293 cells, average of three biological replicates; read-out: EC50 (nM), recruitment of SRC1-RID, ERα-ERβ
Target sequence in this assay (Q15788 626-753): as the sequence (Q15788 626-753, further chain) above
Target sequence in this assay (P03372 whole entry): as the sequence (P03372 whole entry) above
Target sequence in this assay (Q92731 whole entry): as the sequence (Q92731 whole entry) above

ERβ = ERβ (Homo sapiens, UniProt Q92731)
ERβ, sequence (Q92731 whole entry, species assumed): as the sequence (Q92731 whole entry) above

Which “RXRγ-RARα-CoRNBox ternary complex, net BRET” value [1] does the source give for `CC1=C(/C=C/C(C)=C/C=C/C(C)=C/C(=O)O)C(C)(C)CCC1` [ATRA, all-trans retinoic acid] here?
The value was “the ternary complex is disassembled”.

With 4-hydroxytamoxifen [OHT] as the compound, how does the “BRETFect signal (delta BRET), coactivator motif recruitment to ERα dimers” value (ERα-ERα [2]) read?
Its value is “suppresses coactivator motif recruitment”.

For `CCCc1c(-c2ccc(O)cc2)nn(-c2ccc(O)cc2)c1-c1ccc(O)cc1` [PPT, propylpyrazole triol], which EC50 (ERα-ERα [2]; BRETFect titration curves, HEK293 cells, average of three biological replicates, read-out: EC50 (nM), recruitment of the coactivator motif peptide, ERα-ERα) is on record?
Its EC50 is 0.5 nM and 0.547 nM.

What about the EC50 (ERα-ERβ [3]; BRETFect titration curves, HEK293 cells, average of three biological replicates, read-out: EC50 (nM), recruitment of the coactivator motif peptide, ERα-ERβ) of the same compound?
Its EC50 is 28 nM and 28.4 nM.

And the “% of the BRETmax for CoApep recruitment by ERα-ERβ heterodimer” value (ERα-ERβ [3]; relative to BRETmax observed with E2)?
The value was 50%.

What about the EC50 (ERα-ERα [4]) of the same compound?
Its EC50 is 0.968 nM.

What about the EC50 (ERα-ERβ [5]) of the same compound?
The EC50 was 25.1 nM.

Which “recruitment of CoApep-Venus to ERβ, BRET” value (ERβ) does the source give for `C[C@]12CC[C@@H]3c4ccc(O)cc4CC[C@H]3[C@@H]1CC[C@@H]2O` [E2, 17-beta-Estradiol] here?
Its value is “E2-induced”.
